The values that follow come from PubChem BioAssay (NCI).

Assay in all cases: NCI-60 cell line screen, 48 h
Assay [1] relates to K-562 leukemia.
The test system of assay [2] is OVCAR-3 ovarian.
The subject of assay [3] is HOP-62 NSCLC.
Assay [4] relates to UACC-62 melanoma.
Assay [5] has as its system OVCAR-8 ovarian.
For assay [6], the system named is BT-549 breast.
Assay [7] relates to COLO 205 colon.
Assay [8] relates to DU-145 prostate.
For assay [9], the system named is CAKI-1 renal.
Assay [10] has as its system SN12C renal.

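These data come from cells grown in 96-well plates and exposed to compound for 48 hours at five concentrations. GI50 is the concentration that inhibits growth by half. The concentration for full growth arrest is given as TGI.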 Some results are limits rather than exact numbers.

Regarding `Cc1ccc(Cl)cc1-n1c(C)nc2c(cnn2-c2ccnc3c(C(F)(F)F)cccc23)c1=O`, the GI50 in [1], in assay [2], in assay [3], in assay [4], in [5] and in assay [6] was greater than 100 µM in each case. In addition, the GI50 in [7], in assay [8], in [9] and in [10] was greater than 100 µM in each case. Further, the TGI in assay [1], in assay [2], in assay [3], in assay [4], in assay [5] and in assay [6] was greater than 100 µM throughout. In addition, the TGI in assay [7], in [8], in assay [9] and in assay [10] was greater than 100 µM each time.
As to `COc1ccc(C2CC(c3ccc(N(C)C)cc3)=NN2c2ccc(S(N)(=O)=O)cc2)cc1` (configuration not stated), the GI50 in assay [1] is 3.8 µM; in [2], 3.02 µM; in [3] it was 3.96 µM; in [4], 5.85 µM; in [5], 3.98 µM; in [6], 2.99 µM. Further, the GI50 in assay [7] was 2.46 µM; in assay [8] it was 4.84 µM; in assay [9] it was 3.35 µM; in [10], 2.15 µM. Besides, the TGI in [1] is greater than 100 µM; in assay [2], 8.18 µM; in assay [3], greater than 100 µM; in [4], greater than 100 µM; in assay [5] it was greater than 100 µM; in assay [6], 8.7 µM. Further, the TGI in assay [7] is 5.49 µM; in assay [8], greater than 100 µM; in [9], greater than 100 µM; in assay [10] it was 4.63 µM.
In the case of `O=C1/C(=C/c2ccccc2[N+](=O)[O-])COc2ccc(O)cc21`, the GI50 in assay [1] was 0.528 µM; in assay [2], 0.523 µM; in assay [3], 5.21 µM; in [4], 1.52 µM; in [5] it was 2.3 µM; in assay [6], 2.3 µM. Also, the GI50 in assay [7] is 1.14 µM; in assay [8] it was 1.72 µM; in [9], 1.03 µM; in assay [10] it was 1.6 µM. The TGI in assay [1] is greater than 100 µM; in [2], 1.76 µM; in [3], 19.3 µM; in [4], 3.08 µM; in [5], 47.8 µM; in assay [6], 5.23 µM. Further, the TGI stood at 2.89 µM in assay [7], 4.29 µM in assay [8], 2.91 µM in assay [9] and 5.55 µM in [10].
As to `C=CC(=O)N[C@@H](/C=C/C(=O)OCC)Cc1ccc(-c2cc(Cl)cc(Cl)c2)cc1`, the GI50 in assay [1] was 15.7 µM; in [2], 7.27 µM; in assay [4], 4.6 µM; in [5], 8.89 µM; in assay [6] it was 11.9 µM; in assay [7], 14.8 µM. Also, the GI50 is 12.9 µM in assay [8], 21.5 µM in assay [9] and 8.04 µM in assay [10]. The TGI in assay [1] was greater than 100 µM; in assay [2], 53.1 µM; in assay [4] it was 25.2 µM; in assay [5] it was greater than 100 µM; in assay [6] it was 43.8 µM; in assay [7], 53.9 µM. Moreover, the values for the TGI in [8], in assay [9] and in [10] were 64.2 µM, greater than 100 µM and 26.7 µM, respectively.
In the case of `Clc1ccc([I+]c2ccc(Cl)cc2Cl)c(Cl)c1`, the GI50 is 2.03 µM in assay [1]; 1.65 µM in assay [2]; 2.27 µM in assay [3]; 2.1 µM in assay [5]; 2.02 µM in assay [6]; 1.95 µM in [7]. Further, the GI50 in [8] was 1.92 µM; in assay [9] it was 1.61 µM; in assay [10] it was 1.85 µM. The TGI was 5.1 µM in [1]; 3.09 µM in assay [2]; 4.91 µM in assay [3]; 4.8 µM in assay [5]; 4.06 µM in [6]; 3.64 µM in [7]. The TGI in assay [8] was 3.51 µM; in assay [9], 3.32 µM; in [10], 3.9 µM.
In the case of `COc1cc(/C=C/C(=O)O[C@H]2[C@H](O[C@@H]3O[C@@H](C)[C@H](O)[C@@H](O)[C@H]3O)[C@@H](O)[C@H](OCCc3ccc(O)c(O)c3)O[C@@H]2COC2OCC(O)(CO)C2O)ccc1O` (some centres not stated), the GI50 in assay [1] is 63.3 µM; in [2] it was greater than 100 µM; in [3] it was greater than 100 µM; in assay [4], greater than 100 µM; in assay [6] it was 23.8 µM; in [7], greater than 100 µM. The GI50 in [8], in [9] and in assay [10] was greater than 100 µM in each case. Besides, the TGI is greater than 100 µM in assay [1]; greater than 100 µM in assay [2]; greater than 100 µM in assay [3]; greater than 100 µM in assay [4]; 41.8 µM in assay [6]; greater than 100 µM in assay [7]. For the same compound, the TGI in assay [8], in assay [9] and in assay [10] was greater than 100 µM throughout.
For the compound `c1ccc2c(CNCCN3CCNCC3)c3ccccc3c(CNCCN3CCNCC3)c2c1`, the GI50 in assay [1] was 10.3 µM; in assay [2], 18.9 µM; in [3], 11.9 µM; in [4], 21.1 µM; in assay [5], 36.9 µM; in assay [6], 28.3 µM. Also, the GI50 in assay [7] was 13.8 µM; in [8] it was 7.26 µM; in assay [9], greater than 100 µM. Further, the TGI is 32.7 µM in [1]; 51.7 µM in assay [2]; 36.1 µM in assay [3]; 44 µM in assay [4]; greater than 100 µM in assay [5]; 75.6 µM in assay [6]. Moreover, the values for the TGI in assay [7], in [8] and in assay [9] were greater than 100 µM, 33.2 µM and greater than 100 µM, respectively.
